Source: PubChem BioAssay AID2060906 (Molecular Pharmacology Branch, DTP, NCI, 2025)

System: 485176-168-R4-J1-PDC complex spheroid growth
Assay: Anticancer human tumor 485176-168-R4-J1-PDC patient-derived pancreatic adenocarcinoma cell line growth inhibition [RAS]
Settings: for IC50: curve of first compound; for viability, T/C: stronger effect = lower value
Summary of the method: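 Agents were tested in combination matrices in half-log decrements from a top concentration at or near clinical Cmax (10 microM if undetermined). Targets were multi-cell spheroids of tumour lines plus HUVEC and MSC stromal cells.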

[1] = second compound 0.000949 µM, first compound 0.0316 µM
[2] = second compound 0.000949 µM, first compound 0.1 µM
[3] = second compound 0.000949 µM, first compound 0.316 µM
[4] = second compound 0.000949 µM, first compound 1 µM
[5] = second compound 0.003 µM, first compound 0.0316 µM
[6] = second compound 0.003 µM, first compound 0.1 µM
[7] = second compound 0.003 µM, first compound 0.316 µM
[8] = second compound 0.003 µM, first compound 1 µM
[9] = second compound 0.00949 µM, first compound 0.0316 µM
[10] = second compound 0.00949 µM, first compound 0.1 µM
[11] = second compound 0.00949 µM, first compound 0.316 µM
[12] = second compound 0.00949 µM, first compound 1 µM
[13] = second compound 0.03 µM, first compound 0.0316 µM
[14] = second compound 0.03 µM, first compound 0.1 µM
[15] = second compound 0.03 µM, first compound 0.316 µM
[16] = second compound 0.03 µM, first compound 1 µM
[17] = second compound 0.0949 µM, first compound 0.0316 µM
[18] = second compound 0.0949 µM, first compound 0.1 µM
[19] = second compound 0.0949 µM, first compound 0.316 µM
[20] = second compound 0.0949 µM, first compound 1 µM
[21] = second compound 0.3 µM, first compound 0.0316 µM
[22] = second compound 0.3 µM, first compound 0.1 µM
[23] = second compound 0.3 µM, first compound 0.316 µM
[24] = second compound 0.3 µM, first compound 1 µM
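Also: spheroids exposed to compounds for seven days before readout.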
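For viability, T/C in this document: luminescence viability expressed relative to DMSO vehicle wells set as 100%.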

Compound C=CC(=O)Nc1cc(Nc2nccc(-c3cn(C)c4ccccc34)n2)c(OC)cc1N(C)CCN(C)C + CCn1c(-c2cccnc2C(C)OC)c2c3cc(ccc31)N1CCOC(CC(NC(=O)C(C(C)C)N(C)C(=O)C3(F)CCN(C(=O)C#CC(C)(C)N(C)C)CC3)C(=O)N3CCCC(N3)C(=O)OCC(C)(C)C2)C1 has an IC50 (second compound 0.000949 µM) of over 1 µM, an IC50 (second compound 0.003 µM) of over 1 µM and an IC50 (second compound 0.00949 µM) of over 1 µM. The IC50 (second compound 0.03 µM) was over 1 µM, the IC50 (second compound 0.0949 µM) was over 1 µM and the IC50 (second compound 0.3 µM) was over 1 µM. For the same compound, the viability, T/C (second compound 0.000949 µM, first compound 0.00316 µM) was 114%, the viability, T/C (second compound 0.000949 µM, first compound 0.01 µM) was 109% and the viability, T/C [1] was 102%. It also gave a viability, T/C [2] of 97.6%, a viability, T/C [3] of 84.5% and a viability, T/C [4] of 72%. It also gave a viability, T/C (second compound 0.003 µM, first compound 0.00316 µM) of 98.2%, a viability, T/C (second compound 0.003 µM, first compound 0.01 µM) of 105% and a viability, T/C [5] of 90.3%. For the same compound, the viability, T/C [6] was 85.6%, the viability, T/C [7] was 99.1% and the viability, T/C [8] was 61.4%. For the same compound, the viability, T/C (second compound 0.00949 µM, first compound 0.00316 µM) was 104%, the viability, T/C (second compound 0.00949 µM, first compound 0.01 µM) was 109% and the viability, T/C [9] was 102%. For the same compound, the viability, T/C [10] was 88.2%, the viability, T/C [11] was 80.8% and the viability, T/C [12] was 69%. It also gave a viability, T/C (second compound 0.03 µM, first compound 0.00316 µM) of 86.8%, a viability, T/C (second compound 0.03 µM, first compound 0.01 µM) of 113% and a viability, T/C [13] of 114%. It also gave a viability, T/C [14] of 102%, a viability, T/C [15] of 89.9% and a viability, T/C [16] of 58.7%. For the same compound, the viability, T/C (second compound 0.0949 µM, first compound 0.00316 µM) was 81.6%, the viability, T/C (second compound 0.0949 µM, first compound 0.01 µM) was 77.9% and the viability, T/C [17] was 81.6%. For the same compound, the viability, T/C [18] was 96.5%, the viability, T/C [19] was 92.3% and the viability, T/C [20] was 57.1%. For the same compound, the viability, T/C (second compound 0.3 µM, first compound 0.00316 µM) was 87.6%, the viability, T/C (second compound 0.3 µM, first compound 0.01 µM) was 93% and the viability, T/C [21] was 82.7%. It also gave a viability, T/C [22] of 93.1%, a viability, T/C [23] of 78.3% and a viability, T/C [24] of 65.9%.
CC1(O)CCCC1n1c(=O)c(C(F)F)cc2cnc(NC3CCN(S(C)(=O)=O)CC3)nc21 (centres undefined) + CCn1c(-c2cc(N3CCN(C)CC3)cnc2C(C)OC)c2c3cc(ccc31)-c1csc(n1)CC(NC(=O)C1CC1C)C(=O)N1CCCC(N1)C(=O)OCC(C)(C)C2 gave an IC50 (second compound 0.000949 µM) of 1.46 µM, an IC50 (second compound 0.003 µM) of 3.44 µM and an IC50 (second compound 0.00949 µM) of 1.72 µM. The IC50 (second compound 0.03 µM) was 1.66 µM, the IC50 (second compound 0.0949 µM) was 1.39 µM and the IC50 (second compound 0.3 µM) was 1.51 µM. It also gave a viability, T/C [1] of 81.1%, a viability, T/C [2] of 67.5% and a viability, T/C [3] of 63%. For the same compound, the viability, T/C [4] was 48.1%, the viability, T/C (second compound 0.000949 µM, first compound 3.16 µM) was 48.4% and the viability, T/C (second compound 0.000949 µM, first compound 10 µM) was 2.12%. The viability, T/C [5] was 73.9%, the viability, T/C [6] was 56% and the viability, T/C [7] was 71.5%. For the same compound, the viability, T/C [8] was 59.7%, the viability, T/C (second compound 0.003 µM, first compound 3.16 µM) was 54.9% and the viability, T/C (second compound 0.003 µM, first compound 10 µM) was 1.93%. For the same compound, the viability, T/C [9] was 78.6%, the viability, T/C [10] was 68.6% and the viability, T/C [11] was 60.8%. It also gave a viability, T/C [12] of 61.5%, a viability, T/C (second compound 0.00949 µM, first compound 3.16 µM) of 41.5% and a viability, T/C (second compound 0.00949 µM, first compound 10 µM) of 1.63%. The viability, T/C [13] was 63.7%, the viability, T/C [14] was 50.4% and the viability, T/C [15] was 56.6%. The viability, T/C [16] was 56%, the viability, T/C (second compound 0.03 µM, first compound 3.16 µM) was 43.1% and the viability, T/C (second compound 0.03 µM, first compound 10 µM) was 1.78%. It also gave a viability, T/C [17] of 59.4%, a viability, T/C [18] of 60.9% and a viability, T/C [19] of 51.3%. It also gave a viability, T/C [20] of 49.4%, a viability, T/C (second compound 0.0949 µM, first compound 3.16 µM) of 44.7% and a viability, T/C (second compound 0.0949 µM, first compound 10 µM) of 2.07%. For the same compound, the viability, T/C [21] was 75.7%, the viability, T/C [22] was 48.5% and the viability, T/C [23] was 44%. It also gave a viability, T/C [24] of 58.9%, a viability, T/C (second compound 0.3 µM, first compound 3.16 µM) of 43% and a viability, T/C (second compound 0.3 µM, first compound 10 µM) of 1.81%.
